Experimental findings from patent publication US10278942B2 (PELOTON THERAPEUTICS, INC., priority 2015, dated 2019) are described below.

Experiment [1] addresses T1, HIF-2α HIS TAG-PASB Domain (Homo sapiens, UniProt Q99814).
T1 construct: 100 nM HIF-2α HIS TAG-PASB Domain
Kind of experiment: HIF-2α Scintillation Proximity Assay (SPA). Format: binding. In outline:
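IC50 values rest on percent inhibition, where the sample signal is scaled between high and low controls. Wells contain about 100 μL: compound dispensed as 2 μL of DMSO solution, 88 μL protein-probe mix and 10 μL of beads.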
A general note: In a scintillation proximity assay essentially only radioactivity close to the scintillant gives light.

Experiment [2] has as its system 786-O-Hif-Luc cells. Kind of experiment: Luciferase Assay (HIF responsive elements reporter).
Description: A pool of infected cells were then selected against 2 μg/mL of puromycin (P8833, Sigma) for 10 days followed by limited dilution to select single clones. […] Each concentration was tested in triplicate. After about 24 hours, luciferase activity was determined using ONE-Glo Luciferase Assay Reagent (E6110, Promega) following the manufacturer's recommended procedure. EC50 were calculated using Dotmatics software.
Setting [3] is: read-out: Scintillation Proximity Assay IC50.
The mark [4] stands for this setting: read-out: Mean Luciferase EC50 (nM), 786-O-Hif-Luc cells.

Broadly, the IC50 is the concentration needed to halve the response being measured. What is called EC50 is the concentration at which the effect is half-maximal.

Read-outs that look alike come from different tables or passages of the source.

T1 sequence (Q99814 240-350 limits assumed): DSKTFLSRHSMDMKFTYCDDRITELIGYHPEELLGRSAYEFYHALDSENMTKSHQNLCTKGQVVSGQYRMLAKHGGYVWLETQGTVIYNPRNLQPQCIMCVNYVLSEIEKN

Regarding `O=S1(=O)c2ccc(OCc3ccccc3)c(C(F)F)c2C(O)C1(F)F` (stereo not shown) [Compound 411], the IC50 in experiment [1] (setting [3]) lay within 250 to 1000 nM. For the same molecule, the 50% effective concentration (EC50) in experiment [2] (setting [4]) was in the range of 250 to 1000 nM.
On to `N#Cc1cncc(Oc2ccc(S(N)(=O)=O)c3c2CC(F)(F)[C@H]3O)c1` [Compound 253], for which the IC50 in experiment [1] (setting [3]) is above 1000 nM. For the same molecule, the EC50 in experiment [2] (setting [4]) is above 1000 nM.
Take `O=S(=O)(c1ccc(Oc2ccc(F)c(Cl)c2)c2c1C(O)CC2)C(F)(F)F` (stereo not shown) [Compound 218]: the IC50 in experiment [1] (setting [3]) fell in the range of 250 to 1000 nM. Further, the EC50 in experiment [2] (setting [4]) was above 1000 nM.
In the same order, the values of `N#Cc1c(Oc2cc(F)cc(Cl)c2)ccc2c1[C@@H](O)CS2(=O)=O` [Compound 348] are below 50 nM and 50 to 249 nM.
In the same order, the values of `CCCOc1ccc(C(F)(F)F)c2c1CC(F)(F)[C@H]2O` [Compound 704] are below 50 nM and below 50 nM.
On the same counts, the results for `CC(C)(COc1ccc(S(=O)(=O)C(F)(F)F)c2c1CC(F)(F)[C@H]2O)S(C)(=O)=O` [Compound 723] are above 1000 nM and above 1000 nM.
Regarding `CC1CC(Oc2ccc(S(=O)(=O)C(F)(F)F)c3c2CC(F)(F)C3O)CCO1` (stereo not shown) [Compound 623], the IC50 in experiment [1] (setting [3]) is below 50 nM. The EC50 in experiment [2] (setting [4]) is 50 to 249 nM.
On the same counts, the results for `OC1CCc2c(OCC(F)F)ccc(C(F)(F)F)c21` (stereo not shown) [Compound 696] are 50 to 249 nM and 50 to 249 nM.
In the same order, the values of `O=S(=O)(c1ccc(Oc2ccc(F)c(Cl)c2)c2c1[C@H](O)CC2)C(F)F` [Compound 157] are 250 to 1000 nM and above 1000 nM.
On the same counts, the results for `CS(=O)(=O)c1ccc(OC2CCC(F)(F)CC2)c2c1[C@H](O)C(F)(F)[C@@H]2F` [Compound 771] are 50 to 249 nM and 250 to 1000 nM.
Consider `O=S(=O)(c1ccc(Oc2cc(F)cc(Cl)c2)c2c1[C@H](O)CC2)C(F)(F)F` [Compound 56], for which, in experiment [1] (setting [3]), the IC50 was below 50 nM. Moreover, the EC50 in experiment [2] (setting [4]) was 50 to 249 nM.
In the same order, the values of `CS(=O)(=O)c1ccc(OCC2(C#N)CC2)c2c1[C@H](O)C(F)(F)[C@@H]2F` [Compound 754] are 250 to 1000 nM and above 1000 nM.
Regarding `C[C@]1(C#N)C[C@H](Oc2ccc(S(=O)(=O)C(F)(F)F)c3c2CC(F)(F)[C@H]3O)C1` [Compound 788], the IC50 in experiment [1] (setting [3]) lay in the range of 50 to 249 nM. The EC50 in experiment [2] (setting [4]) lay in the range of 250 to 1000 nM.
In the same order, the values of `CS(=O)(=O)c1ccc(Oc2cc(F)cc(C#N)c2)c2c1[C@H](O)C(F)(Cl)C2` (stereo partly shown) [Compound 270] are 50 to 249 nM and 50 to 249 nM.
For the molecule `N=S(=O)(c1ccc(Oc2cc(F)cc(Cl)c2)c(Br)c1Cl)C(F)(F)F` (stereo not shown) [Compound 75], the half-maximal inhibitory concentration (IC50) in experiment [1] (setting [3]) was in the range of 50 to 249 nM. For the same molecule, in experiment [2] (setting [4]), the EC50 was above 1000 nM.
On the same counts, the results for `O=S(=O)(c1ccc(CC2CCCCC2)c2c1C(O)C(F)(F)C2)C(F)(F)F` (stereo not shown) [Compound 509] are below 50 nM and above 1000 nM.
As for `CS(=O)(=O)c1ccc(Oc2cccc(C#N)c2)c2c1[C@H](O)C(F)(F)C2` [Compound 162], in experiment [1] (setting [3]), the IC50 was in the range of 50 to 249 nM. Also, the EC50 in experiment [2] (setting [4]) fell in the range of 50 to 249 nM.
On to `CS(=O)(=O)c1ccc(OCC(F)(F)F)c2c1[C@H](O)C(F)(F)[C@@H]2F` [Compound 751], for which the IC50 in experiment [1] (setting [3]) fell in the range of 50 to 249 nM. In addition, in experiment [2] (setting [4]), the EC50 was above 1000 nM.
On the same counts, the results for `CC(C)Oc1ccc(S(=O)(=O)C(F)(F)F)c2c1CC(F)(F)C2O` (stereo not shown) [Compound 593] are below 50 nM and 50 to 249 nM.
On the same counts, the results for `O=S(=O)(c1ccc(-c2ccc(Cl)cc2)c2c1[C@H](O)C(F)(F)C2)C(F)(F)F` [Compound 563] are 50 to 249 nM and 250 to 1000 nM.
On the same counts, the results for `COC[C@H](C)Oc1ccc(S(=O)(=O)C(F)(F)F)c2c1CC(F)(F)[C@H]2O` [Compound 660] are 50 to 249 nM and 250 to 1000 nM.
As to `O=S(=O)(c1ccc(Oc2cccc3[nH]ncc23)c2c1[C@H](O)C(F)(F)C2)C(F)(F)F` [Compound 263], in experiment [1] (setting [3]), the IC50 is below 50 nM. The EC50 in experiment [2] (setting [4]) fell in the range of 250 to 1000 nM.
On to `O=S(=O)(c1ccc(Oc2ccc(F)cc2)c2c1C(O)CC2)C(F)(F)F` (stereo not shown) [Compound 212], for which, in experiment [1] (setting [3]), the IC50 lay in the range of 250 to 1000 nM. Also, the EC50 in experiment [2] (setting [4]) was above 1000 nM.
As for `N#CN=S(=O)(CF)c1ccc(Oc2cc(F)cc(C#N)c2)c2c1[C@H](O)[C@H](F)C2` (stereo partly shown) [Compound 276], in experiment [1] (setting [3]), the IC50 was 50 to 249 nM. The EC50 in experiment [2] (setting [4]) lay in the range of 50 to 249 nM.
For `CC(O)c1c(S(=O)(=O)C(F)(F)F)ccc(Oc2cc(F)cc(Cl)c2)c1Br` (stereo not shown) [Compound 103], the concentration for half-maximal inhibition (IC50) in experiment [1] (setting [3]) fell in the range of 250 to 1000 nM. In addition, the EC50 in experiment [2] (setting [4]) was above 1000 nM.
As for `Cc1cc(Oc2ccc(S(=O)(=O)C(F)F)c3c2CC(F)(F)[C@H]3O)ccc1F` [Compound 198], in experiment [1] (setting [3]), the IC50 is below 50 nM. Moreover, the EC50 in experiment [2] (setting [4]) fell in the range of 250 to 1000 nM.
In the same order, the values of `O=S(=O)(c1ccc([C@@H]2CCC[C@H](O)C2)c2c1[C@H](O)C(F)(F)C2)C(F)(F)F` [Compound 482, (S)-2,2-difluoro-4-((1R,3S)-3-hydroxycyclohexyl)-7-((trifluoromethyl)sulfonyl)-2,3-dihydro-1H-inden-1-ol] are 250 to 1000 nM and 250 to 1000 nM.
In the same order, the values of `COC(=O)COc1ccc(S(=O)(=O)C(F)(F)F)c2c1CC(F)(F)C2O` (stereo not shown) [Compound 639] are above 1000 nM and above 1000 nM.
As to `CS(=O)(=O)c1ccc(Oc2cc(F)cc(Cl)c2)c(C(F)F)c1C#N` [Compound 92], in experiment [1] (setting [3]), the IC50 was below 50 nM. In experiment [2] (setting [4]), the 50% effective concentration (EC50) lay in the range of 250 to 1000 nM.
On the same counts, the results for `CS(=O)(=O)c1ccc(O[C@H]2C[C@](F)(C#N)C2)c2c1[C@H](O)C(F)(F)[C@@H]2F` [Compound 741] are below 50 nM and above 1000 nM.
`O=S1(=O)c2ccc(Oc3cc(F)cc(Cl)c3)c(Br)c2[C@H](O)C1(F)F` [Compound 405]: the IC50 in experiment [1] (Scintillation Proximity Assay IC50 (nM)) lay in the range of 50 to 249 nM. The EC50 in experiment [2] (read-out: Mean Luciferase EC50 (nM)) fell in the range of 50 to 249 nM.
`CS(=O)(=O)c1ccc(Oc2cc(C#N)cc(C(F)F)c2)c2c1C(O)CC2` (stereo not shown) [Compound 249]: the IC50 in experiment [1] (setting [3]) was in the range of 250 to 1000 nM. Also, the EC50 in experiment [2] (setting [4]) is above 1000 nM.
On the same counts, the results for `CS(=O)(=O)c1ccc(C(F)(F)CO)c2c1C(O)CC2` (stereo not shown) [Compound 554] are 50 to 249 nM and above 1000 nM.
In the same order, the values of `O=S(=O)(c1ccc(OC2CCOCC2)c2c1C(O)C(F)(F)C2)C(F)F` (stereo not shown) [Compound 782] are 50 to 249 nM and 50 to 249 nM.
On the same counts, the results for `CC1(O)c2c(ccc(Oc3cc(F)cc(F)c3)c2Br)S(=O)(=O)C1(F)F` (stereo not shown) [Compound 444] are 50 to 249 nM and 250 to 1000 nM.
For `N#Cc1cccc(Oc2ccc(S(=O)(=O)C(F)(F)F)cc2Br)c1` [Compound 117], in experiment [1] (setting [3]), the concentration for half-maximal inhibition (IC50) is 50 to 249 nM. Also, the EC50 in experiment [2] (setting [4]) is above 1000 nM.
Turning to `CS(=O)(=O)c1ccc(OC[C@@H]2CC2(F)F)c2c1[C@H](O)C(F)(F)[C@@H]2F` [Compound 768], the IC50 in experiment [1] (setting [3]) lay within 50 to 249 nM. Also, the EC50 in experiment [2] (setting [4]) fell in the range of 250 to 1000 nM.
On the same counts, the results for `O=S(=O)(c1ccc(Oc2cc(F)cc(F)c2)c2c1C=CC2)C(F)F` [Compound 21] are 50 to 249 nM and above 1000 nM.
On the same counts, the results for `CCCOc1ccc(I)c2c1C[C@@H](F)[C@H]2O` [Compound 683] are above 1000 nM and above 1000 nM.
On the same counts, the results for `Cc1nnc(/C=C/c2c(S(=O)(=O)C(F)(F)F)ccc(Oc3cc(F)cc(C#N)c3)c2C)o1` [Compound 151] are above 1000 nM and above 1000 nM.
Turning to `N#C[C@H]1C[C@@H](Oc2ccc(S(=O)(=O)C(F)(F)F)c3c2CC(F)(F)[C@H]3O)C1` [Compound 787], the 50% inhibitory concentration (IC50) in experiment [1] (setting [3]) is below 50 nM. Besides, in experiment [2] (setting [4]), the EC50 is below 50 nM.
